“And” between values parts separate entries of the source, which are not always exact repeats. Equal values may be shown once.
Key:
[1] = system: prostacyclin (PGI2); experiment: Endogenous release of prostacyclin by isolated aorta segments of fed rabbits; format: in vivo; settings: after 30 days, vs basal vitamin E deficient diet
[2] = system: pyruvate oxidase; experiment: Pyruvate oxidase activity in rabbits fed supplemented vitamin E deficient diet; format: in vivo; settings: after 30 days, vs basal vitamin E deficient diet
[3] = system: Fibroblasts; experiment: Lipid peroxidation in fibroblast culture, TBA assay; format: cell-based; settings: 0.01%, 3 days of incubation, 37° C.
Description: The possibility that the present antioxidant may serve as a substitute for vitamin E was also tested in tissue culture. Fibroblasts were grown in an appropriate medium for three days at a temperature of 37° C., (a) in absence of additive (control), (b) in presence of 0.01% vitamin E, and (c) in presence of 0.01% present (crude) antioxidant.

[4] = system: liver microsomal NADPH oxidase; experiment: Liver microsomal NADPH oxidase activity in rabbits fed supplemented vitamin E deficient diet; format: in vivo; settings: after 30 days, vs basal vitamin E deficient diet
[5] = system: peroxides in the skin; experiment: Peroxide level in skin of adult mice (TBA test), topical application; format: in vivo; settings: 0.1% in Oil of Olay
Excerpt: Samples of lotions and appropriate controls were applied to mice or rat skin for a fixed period. The application was done once a day. Experiments were terminated by killing the animal, peeling the skin and freezing it in liquid nitrogen. Samples of the frozen skin were homogenized in 0.2M phosphate buffer, pH 6.5. After centrifugation, the supernatant was collected and analyzed for the peroxide value using the TBA (thiobarbituric acid) test as described by Sinnhuber et al, Food Res. 23:620 (1958).
In these experiments adult mice (2 months old) were treated as described in Example 2. The grown mice were shaved before applying the lotions to the skin. In this experiment the antioxidant was dissolved in Oil of Olay. Mice were sacrificed after 21 days.

[6] = system: peroxide level in the skin; experiment: Malondialdehyde (MDA) level in epidermis of UV-irradiated hairless mice; format: in vivo, hairless mice (SKH/Hr); settings: for % decrease in MDA, mean / MDA, Treated Irradiated Site, mean / % decrease in MDA / MDA, Treated Irradiated Site: 5% in ethanol
Excerpt: In this experiment, alpha-tocopheryl acetate and the present antioxidant were applied to the skin of hairless mice and the level of peroxide in the skin after exposure to UV radiation compared to a control group. The detailed procedure was as follows.
The malondialdehyde (MDA) assay is based on the methods of Dixit et al [J. Invest. Derm., 81: 369-75 (1983)], Tappel and Summerfield ["Measurement of and protection from in vivo lipid peroxidation", Free Radicals in Biology Vol. IV (1980). Academic Press, New York (W. A. Pryor, ed.)] and Placer et al [Analytical Biochemistry, 16:359-64 (1966)].
6-8week old hairless mice [(SKH/Hr); Skin and Cancer Hospital, Temple University, Philadelphia] were anesthetized using a 1:10 dilution of Sodium Pentobarbital (50 mg./ml., Elkins-Sinn. Inc.). The UV light sources were 2 fluorescent lamps (Westinghouse PS-40) and light intensity was measured with an Optometer (United Detector Technology) using a UVB filter. The tissue was homogenized using a Heat Systems model W-10 Sonicator, filtration and centrifugation of the homogenates being effected through a 2.5 micron Millipore filter and a Sorvall RC-5 Speed Centrifuge, respectively. The buffer consisted of 0.1M potassium phosphate, pH 7.4 with 10^-4 M magnesium chloride.
The protein assay is based on the method given in Clinical Chemistry, 23: 908 (1977). The modified biuret reagent contains per liter 3.8 g. CuSO4, 6.7 g. EDTA, 17.5 g. glycine, 14.0 g. NaCI and 40.0 g. NaOH. Absorbance was measured on an MS-2 Spectrophotometer (Micromedic Systems, Inc.).
20 mice were anesthetized with Sodium Pentobarbital (0.5 mg./10 g. body weight). Two rectangular areas, 6.25 cm.^2 each, were outlined on the dorsal and ventral sides of each mouse. The dorsal areas were designated as left dorsal (site A) and right dorsal (site B). The ventral areas were designated as left ventral (site C) and right ventral (site D). The products were applied in an aliquot of 75 ul. to the designated sites. The application protocol was randomized so that a given treatment was not restricted to the same area of the skin. One site on each dorsal and ventral side remained untreated to serve as the irradiated controls. 15 minutes after product application, the mice were exposed to 110 millijoules of UV light per cm.^2 of skin area over a period of 220 seconds per side. The mice were placed so that the area to be irradiated was directly under the light source while the areas on the other side were protected from the radiation. The mice were irradiated on both the dorsal and ventral sides. After UV treatment, the mice were returned to separate cages to recover from the anesthesia.
4 hours after irradiation, the mice were sacrificed by cervical dislocation. The skin was removed and stretched over a styrofoam block. The epidermis was separated from the dermis by heating the skin in a water bath for 60 seconds at 54° C. and then scraping the surface with a scalpel. Each 6.25 cm. area of epidermis was placed in a separate 1.5 ml. Eppendorf vial with 200 ul. of buffer. The pieces of epidermis were homogenized by sonication for 2×30 seconds, with a 10 second pause between each 30 second period to prevent heat buildup. The vial was kept in an ice bath.
After homogenization, 1 ml. of buffer was added to each vial and vortexed. The homogenate was filtered through a 2.5 micron filter, twice. An aliquot containing 1.4-1.8 mg. of homogenate protein was placed into test tubes with 0.6 ml. 10% trichloroacetic acid and 1.2 ml. 0.5% (w/v) 2-thiobarbituric acid. The test tube mixture was well vortexed and then placed in a boiling water bath for 10 minutes, the top of the test tube being covered with a marble which acted as a condensor. The tubes were cooled with running tap water and centrifuged for 15 minutes at 30,000×g. Blanks were prepared by placing 0.1M phosphate buffer in test tubes. All assays were done in duplicate. […]

[7] = combined dorsal and ventral mean
[8] = ventral, individual samples 6-10

vitamin E
endogenous release of prostacyclin (PGI2), detected as 6-keto-PGF1-alpha [1]: significantly increased
pyruvate oxidase activity (enzymatic lipid peroxidation) [2]: decreased
Peroxide value (TBA assay) [3]: 0.015
liver microsomal NADPH oxidase activity (enzymatic lipid peroxidation) [4]: decreased

COc1ccc(O)c(C(C)(C)C)c1 [BHA, butylated hydroxy anisole]
effect on the level of peroxides in the skin [5]: no reduction of the level of peroxides was observed

Cc1c(C)c2c(c(C)c1O)CCC(C)(CCCC(C)CCCC(C)CCCC(C)C)O2 (stereo not drawn) [alpha tocopherol]
effect on the level of peroxides in the skin [5]: no reduction of the level of peroxides was observed

CC(=O)Oc1c(C)c(C)c2c(c1C)CCC(C)(CCC[C@H](C)CCC[C@H](C)CCCC(C)C)O2 (stereo partly drawn) [alp. tocopheryl acetate, alpha-tocopheryl acetate]
effectiveness in reducing the level of peroxides in the skin ([6]; 1% antioxidant in Oil of Olay vs 5% alpha-tocopheryl acetate in ethanol): significantly less effective
% decrease in MDA, mean [6, 7]: 27.82%
MDA, Treated Irradiated Site, mean [6, 7]: 0.168 nM MDA/mg. protein
% decrease in MDA, mean ([6]; dorsal mean): 27.26%
MDA, Treated Irradiated Site, mean ([6]; dorsal mean): 0.165 nM MDA/mg. protein
% decrease in MDA ([6]; dorsal, individual samples 1-5): 34.78% and 39.77% and 22.92% and 12.75% and 26.10%
MDA, Treated Irradiated Site ([6]; dorsal, individual samples 1-5): 0.105 nM MDA/mg. protein and 0.103 nM MDA/mg. protein and 0.074 nM MDA/mg. protein and 0.308 nM MDA/mg. protein and 0.235 nM MDA/mg. protein
% decrease in MDA, mean ([6]; ventral mean): 28.38%
MDA, Treated Irradiated Site, mean ([6]; ventral mean): 0.172 nM MDA/mg. protein
% decrease in MDA [6, 8]: 42.41% and 28.95% and 23.17% and 22.39% and 25.00%
MDA, Treated Irradiated Site [6, 8]: 0.148 nM MDA/mg. protein and 0.189 nM MDA/mg. protein and 0.305 nM MDA/mg. protein and 0.027 nM MDA/mg. protein

Cc1cc(C(C)(C)C)c(O)c(C(C)(C)C)c1 [BHT, butylated hydroxy toluene]
effect on the level of peroxides in the skin [5]: no reduction of the level of peroxides was observed

Reference: US4976960A, “Food supplements” (Bar Ilan University, priority 1986, dated 1990)
